Laboratory results reported in the NIST ThermoML archive (doi:10.1016/j.tca.2011.06.003).

Test: xn = mol fraction of the nth substance listed
Conditions: 101 kPa, Liquid; for speed of sound: Sing-around technique in a fixed-path interferometer; for mass density: Vibrating tube method

NCCNCCN [di(2-aminoethyl)amine] + CCCCO
Conditions | mass density, 293.15 K [kg/m3] | mass density, 298.15 K [kg/m3] | mass density, 303.15 K [kg/m3] | speed of sound, 293.15 K [m/s] | speed of sound, 298.15 K [m/s] | speed of sound, 303.15 K [m/s] | viscosity, 298.15 K [mPa·s]
x1 = 0.0517 | 821.995 | 818.115 | 814.209 | 1288 | 1271 | 1254.2 | 3.066
x1 = 0.1085 | 834.306 | 830.363 | 826.401 | 1319.9 | 1302.9 | 1285.9 | 3.551
x1 = 0.153 | 843.084 | 839.101 | 835.096 | 1343.3 | 1327.1 | 1309.9 | 3.907
x1 = 0.2024 | 852.085 | 848.068 | 844.036 | 1369.5 | 1351.9 | 1335.1 | 4.256
x1 = 0.2524 | 860.585 | 856.54 | 852.484 | 1393.7 | 1376.5 | 1359.6 | 4.526
x1 = 0.3079 | 869.265 | 865.207 | 861.136 | 1419.6 | 1402.5 | 1385.5 | 4.772
x1 = 0.4082 | 883.406 | 879.335 | 875.244 | 1464.1 | 1446.5 | 1429.3 | 5.076
x1 = 0.5013 | 895.464 | 891.374 | – | 1502.4 | 1484.6 | 1467.1 | 5.214
x1 = 0.6067 | 908.152 | 904.038 | – | 1543.5 | 1525.4 | 1507.7 | 5.317
x1 = 0.7079 | 919.755 | 915.617 | – | 1581.6 | 1562.9 | 1545.1 | 5.331
x1 = 0.8 | 929.638 | 925.474 | – | 1616.5 | 1597.5 | 1579.2 | 5.368
x1 = 0.8548 | 935.634 | 931.448 | – | 1637 | 1617.8 | 1598.6 | 5.433
x1 = 0.9075 | 941.042 | 936.842 | – | 1656.6 | 1637.4 | 1617.5 | 5.485
x1 = 0.9525 | 945.451 | 941.233 | – | 1673.3 | 1653.8 | 1633.6 | 5.562
